In ChEMBL document CHEMBL5620416, “Design, synthesis and development of a dual inhibitor of Topoisomerase 1 and poly (ADP-ribose) polymerase 1 for efficient killing of cancer cells” (Eur J Med Chem, 2023):
The source made the active and inactive calls. No cut-off for these calls is given here.

Assays:
[1] = test system: HCT-116; assay: Induction of cell cycle arrest in human HCT-116 cells assessed as accumulation of cells at S phase at 20 uM incubated for 48 hrs by PI staining based flow cytometry analysis (reference value: 17%); type: functional
[2] = test system: HCT-116; assay: Induction of cell cycle arrest in human HCT-116 cells assessed as accumulation of cells at Sub-G1 phase at 5 uM incubated for 24 hrs by PI staining based flow cytometry analysis (reference value: 1.1 +/- 0.1%); type: functional
[3] = test system: DNA topoisomerase 1/Deoxyribonucleic acid (Homo sapiens); assay: Induction of TOP1-DNA covalent complex stabilization in human HCT-116 cells after 2 to 6 hrs by RADAR assay; type: cell-based; settings: dose 10-20 µM, time 2-6 hrs
[4] = test system: HCT-116; assay: Induction of cell cycle arrest in human HCT-116 cells assessed as accumulation of cells at S phase at 10 uM incubated for 48 hrs by PI staining based flow cytometry analysis (reference value: 17%); type: functional
[5] = test system: Calf thymus DNA; assay: Binding affinity to calf thymus pUC19 DNA assessed as intercalating activity by measuring conformational change in DNA at 50 to 300 uM incubated for 30 mins by EtBr staining based agarose gel electrophoresis; type: nucleic-acid assay; settings: Bos taurus, dose 50-300 µM
[6] = test system: Calf thymus DNA; assay: Displacement of EtBr from calf thymus pUC19 DNA preincubated with EtBr for 15 mins followed by compound addition and measured after 30 mins by […] staining based fluorescence assay; type: nucleic-acid assay; settings: Bos taurus, dose 100-300 µM
[7] = test system: DNA topoisomerase 1/Deoxyribonucleic acid (Homo sapiens); assay: Induction of TOP1-DNA covalent complex stabilization in human HCT-116 cells after 2 to 8 hrs by immunofluorescence microscopic assay; type: cell-based; settings: dose 20.0 µM, time 2-8 hrs
[8] = molecular target: Poly [ADP-ribose] polymerase 1 (Homo sapiens) (UniProt P09874); assay: Inhibition of recombinant human PARP1 incubated for 10 mins; settings: dose 10-30 µM
Sequence of Poly [ADP-ribose] polymerase 1 (Homo sapiens) (P09874 whole entry): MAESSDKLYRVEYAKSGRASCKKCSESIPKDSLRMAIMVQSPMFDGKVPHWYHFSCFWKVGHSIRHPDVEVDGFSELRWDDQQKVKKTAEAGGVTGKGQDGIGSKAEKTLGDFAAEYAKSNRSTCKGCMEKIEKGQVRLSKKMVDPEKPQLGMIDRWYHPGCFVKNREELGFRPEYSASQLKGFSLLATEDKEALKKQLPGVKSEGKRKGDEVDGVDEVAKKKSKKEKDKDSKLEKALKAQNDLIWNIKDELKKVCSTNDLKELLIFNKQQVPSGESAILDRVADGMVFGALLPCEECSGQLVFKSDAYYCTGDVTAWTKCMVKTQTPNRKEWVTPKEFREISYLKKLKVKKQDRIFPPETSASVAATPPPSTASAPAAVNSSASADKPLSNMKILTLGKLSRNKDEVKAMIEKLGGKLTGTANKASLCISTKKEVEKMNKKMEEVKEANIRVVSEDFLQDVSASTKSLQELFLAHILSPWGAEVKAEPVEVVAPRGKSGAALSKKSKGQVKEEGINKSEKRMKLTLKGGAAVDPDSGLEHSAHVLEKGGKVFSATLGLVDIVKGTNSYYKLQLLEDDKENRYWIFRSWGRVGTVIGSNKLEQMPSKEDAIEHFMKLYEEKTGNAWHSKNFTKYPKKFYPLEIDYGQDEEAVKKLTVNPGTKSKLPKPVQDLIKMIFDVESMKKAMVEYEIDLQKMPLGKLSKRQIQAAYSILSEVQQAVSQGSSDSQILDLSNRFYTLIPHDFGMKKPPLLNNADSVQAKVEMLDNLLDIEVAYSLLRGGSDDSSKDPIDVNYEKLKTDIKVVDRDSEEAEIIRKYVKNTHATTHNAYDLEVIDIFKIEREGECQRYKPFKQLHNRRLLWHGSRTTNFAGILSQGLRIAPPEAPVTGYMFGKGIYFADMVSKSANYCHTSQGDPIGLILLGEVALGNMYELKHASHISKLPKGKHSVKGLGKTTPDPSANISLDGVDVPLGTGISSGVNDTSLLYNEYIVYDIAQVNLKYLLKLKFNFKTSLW

[9] = test system: HCT-116; assay: Induction of cell cycle arrest in human HCT-116 cells assessed as accumulation of cells at Sub-G1 phase at 20 uM incubated for 48 hrs by PI staining based flow cytometry analysis (reference value: 2.7 +/- 0.4%); type: functional
[10] = test system: MIA PaCa-2; assay: Cytotoxicity against human MIA PaCa-2 cells incubated for 72 hrs by MTT assay; type: functional, cell-based; settings: MIA PaCa-2, 72 h
[11] = molecular target: T1, DNA topoisomerase 1 (Homo sapiens) (UniProt P11387); assay: Inhibition of recombinant human Top1 assessed as reduction in plasmid relaxation at 10 to 20 uM using pUC19 plasmid DNA as substrate measured upto 30 mins by ethidium bromide staining based assay; settings: dose 10-20 µM
T1 sequence (whole entry): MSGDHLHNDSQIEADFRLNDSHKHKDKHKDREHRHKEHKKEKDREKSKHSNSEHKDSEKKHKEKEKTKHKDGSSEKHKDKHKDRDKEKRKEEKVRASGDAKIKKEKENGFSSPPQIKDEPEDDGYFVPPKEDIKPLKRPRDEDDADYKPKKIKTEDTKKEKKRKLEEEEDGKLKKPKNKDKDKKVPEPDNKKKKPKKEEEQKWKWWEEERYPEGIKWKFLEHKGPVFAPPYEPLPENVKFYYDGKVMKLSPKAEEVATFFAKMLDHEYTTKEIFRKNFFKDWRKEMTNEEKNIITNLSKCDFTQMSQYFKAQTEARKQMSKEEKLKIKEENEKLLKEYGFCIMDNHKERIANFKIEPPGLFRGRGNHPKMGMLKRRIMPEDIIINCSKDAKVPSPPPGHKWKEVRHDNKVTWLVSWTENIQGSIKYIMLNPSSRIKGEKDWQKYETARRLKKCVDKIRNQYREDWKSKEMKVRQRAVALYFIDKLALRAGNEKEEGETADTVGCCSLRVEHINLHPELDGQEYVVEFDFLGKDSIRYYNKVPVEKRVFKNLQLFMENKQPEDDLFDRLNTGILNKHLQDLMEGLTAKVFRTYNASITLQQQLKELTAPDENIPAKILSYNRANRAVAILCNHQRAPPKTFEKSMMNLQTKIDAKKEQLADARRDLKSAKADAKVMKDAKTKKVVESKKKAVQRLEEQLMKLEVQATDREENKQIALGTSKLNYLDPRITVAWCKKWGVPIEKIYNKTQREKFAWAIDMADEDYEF

[12] = test system: PANC-1; assay: Cytotoxicity against human PANC-1 cells incubated for 72 hrs by MTT assay; type: functional, cell-based; settings: PANC-1, 72 h
[13] = test system: HCT-116; assay: Induction of cell cycle arrest in human HCT-116 cells assessed as accumulation of cells at S phase at 5 uM incubated for 48 hrs by PI staining based flow cytometry analysis (reference value: 17%); type: functional
[14] = test system: HCT-116; assay: Induction of DNA double stranded break in human HCT-116 cells assessed as increase in gammaH2AX level at 20 uM after 4 to 8 hrs by immunofluorescence assay; type: functional, cell-based; settings: time 4-8 hrs
[15] = test system: HCT-116; assay: Induction of cell cycle arrest in human HCT-116 cells assessed as accumulation of cells at Sub-G1 phase at 10 uM incubated for 48 hrs by PI staining based flow cytometry analysis (reference value: 2.7 +/- 0.4%); type: functional
[16] = test system: HCT-116; assay: Induction of cell cycle arrest in human HCT-116 cells assessed as accumulation of cells at Sub-G1 phase at 20 uM incubated for 24 hrs by PI staining based flow cytometry analysis (reference value: 1.1 +/- 0.1%); type: functional
[17] = test system: HCT-116; assay: Induction of DNA double stranded break in human HCT-116 cells assessed as increase in 53BP1 level at 20 uM after 4 to 8 hrs by immunofluorescence assay; type: functional, cell-based; settings: time 4-8 hrs
[18] = test system: DNA topoisomerase 1/Deoxyribonucleic acid (Homo sapiens); assay: Induction of TOP1-DNA covalent complex stabilization in human HCT-116 cells at 10 to 20 uM by RADAR assay; type: cell-based; settings: dose 10-20 µM, time 2-6 hrs, TDE = time-dependent effect
[19] = test system: HCT-116; assay: Cytotoxicity against human HCT-116 cells incubated for 72 hrs by MTT assay; type: functional, cell-based; settings: HCT-116, 72 h
[20] = test system: HCT-116; assay: Induction of PARP1 trapping in human HCT-116 cells assessed as change in PARP1 level in chromatin fraction at 20 uM incubated for 4 to 8 hrs by SDS PAGE analysis; type: functional, cell-based; settings: time 4-8 hrs
[21] = test system: MIA PaCa-2; assay: Cytotoxicity against human MIA PaCa-2 cells at less than 10 uM incubated for 7 to 10 days by crystal violet staining based assay; type: functional, cell-based; settings: time 7-10 day
[22] = test system: HCT-116; assay: Induction of cell cycle arrest in human HCT-116 cells assessed as accumulation of cells at Sub-G1 phase at 5 uM incubated for 48 hrs by PI staining based flow cytometry analysis (reference value: 2.7 +/- 0.4%); type: functional
[23] = molecular target: T1, DNA topoisomerase 1 (Homo sapiens); assay: Induction of TOP1 degradation in human HCT-116 cells at 20 uM after 2 to 24 hrs by alkaline lysis method; type: cell-based; settings: time 2-24 hrs
[24] = test system: HCT-116; assay: Induction of cell cycle arrest in human HCT-116 cells assessed as accumulation of cells at G2 phase at 5 uM incubated for 48 hrs by PI staining based flow cytometry analysis (reference value: 26%); type: functional
[25] = molecular target: Poly [ADP-ribose] polymerase 1 (Homo sapiens) (UniProt P09874); assay: Inhibition of recombinant human PARP1 at 30 uM incubated for 10 mins relative to control
[26] = test system: HCT-116; assay: Induction of PARylation in human HCT-116 cells at 1 uM incubated for 4 hrs by Western blotting analysis; type: functional, cell-based

- Activity [3]: Dose-Dependent Effect
- Activity [5]: inactive
- Activity [6]: Dose-Dependent Effect
- Activity [7]: Dose-Dependent Effect
- inhibition [8]: Dose-Dependent Effect
- inhibition [11]: Active
- Activity [18]: Tde
- Activity [23]: Active
- inhibition [25]: 35%
Compound: O=C1c2cccc3cccc(c23)C(=O)N1CCSc1nnc(Cn2nc(Cc3ccc(F)cc3)c3ccccc3c2=O)o1
- Activity [1]: 39%
- Activity [2]: 23.8%
- Activity [4]: 33%
- Activity [9]: 57%
- IC50 [10]: 4.5 µM
- IC50 [12]: 4 µM
- Activity [13]: 30%
- Activity [14]: Active
- Activity [15]: 44.2%
- Activity [16]: 39.1%
- Activity [17]: Active
- IC50 [19]: 4 µM
- Activity [20]: inactive
- Activity [21]: Active
- Activity [22]: 35%
- Activity [24]: 29%
- Activity [26]: Active
